Results from US11180474B2 (BRISTOL-MYERS SQUIBB COMPANY, priority 2016, dated 2021).

Columns and labels:
human TLR8 = target: T1, human TLR8 (Homo sapiens, UniProt Q9NR97); assay: TLR8 inhibition reporter assay (HEK-Blue cells, SEAP reporter, R848 stimulation); type: cell-based; settings: HEK-Blue cells overexpressing human TLR8, R848 15.9 μM
T1 construct: host or cells: HEK-Blue cells
T1 sequence (Q9NR97 27-1041): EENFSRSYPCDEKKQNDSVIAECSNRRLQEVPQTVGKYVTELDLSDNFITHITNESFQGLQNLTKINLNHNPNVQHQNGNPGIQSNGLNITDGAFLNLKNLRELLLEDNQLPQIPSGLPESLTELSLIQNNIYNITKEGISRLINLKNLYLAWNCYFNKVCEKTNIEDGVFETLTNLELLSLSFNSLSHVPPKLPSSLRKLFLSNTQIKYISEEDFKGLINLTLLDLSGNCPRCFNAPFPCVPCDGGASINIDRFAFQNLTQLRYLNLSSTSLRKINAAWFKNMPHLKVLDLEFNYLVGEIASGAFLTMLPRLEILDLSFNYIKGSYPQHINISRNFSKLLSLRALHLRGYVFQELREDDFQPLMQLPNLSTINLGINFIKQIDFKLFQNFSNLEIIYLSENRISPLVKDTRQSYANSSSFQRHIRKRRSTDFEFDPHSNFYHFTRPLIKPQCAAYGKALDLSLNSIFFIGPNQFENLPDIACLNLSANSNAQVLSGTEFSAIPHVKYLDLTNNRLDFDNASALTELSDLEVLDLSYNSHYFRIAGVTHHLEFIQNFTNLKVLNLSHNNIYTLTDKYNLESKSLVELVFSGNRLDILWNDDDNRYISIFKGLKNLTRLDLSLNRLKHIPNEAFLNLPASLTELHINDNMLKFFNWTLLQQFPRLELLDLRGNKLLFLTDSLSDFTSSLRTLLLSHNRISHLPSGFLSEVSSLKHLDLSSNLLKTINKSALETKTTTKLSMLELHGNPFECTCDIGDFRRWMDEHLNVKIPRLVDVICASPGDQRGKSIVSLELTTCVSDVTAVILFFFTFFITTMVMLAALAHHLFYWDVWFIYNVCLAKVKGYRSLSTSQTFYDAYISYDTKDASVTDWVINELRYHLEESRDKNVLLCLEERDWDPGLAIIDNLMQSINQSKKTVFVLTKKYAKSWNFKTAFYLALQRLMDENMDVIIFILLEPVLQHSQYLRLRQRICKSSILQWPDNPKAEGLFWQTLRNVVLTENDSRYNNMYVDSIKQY
Procedure, shortened: (§1)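 In this cell reporter format, test compounds at 0.05 nM-50 μM final incubate 22 h with seeded cells (TLR7 15000, TLR8 20,000 per well). SEAP read-out by HEK-Blue Detection medium yields % inhibition relative to agonist/DMSO and known-inhibitor wells.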

human TLR7 = target: T2, human TLR7 (Homo sapiens, UniProt Q9NYK1); assay: TLR7 inhibition reporter assay (HEK-Blue cells, SEAP reporter, gardiquimod stimulation); type: cell-based; settings: HEK-Blue cells overexpressing human TLR7, gardiquimod 7.5 μM
T2 construct: host or cells: HEK-Blue cells
T2 sequence (Q9NYK1 27-1049): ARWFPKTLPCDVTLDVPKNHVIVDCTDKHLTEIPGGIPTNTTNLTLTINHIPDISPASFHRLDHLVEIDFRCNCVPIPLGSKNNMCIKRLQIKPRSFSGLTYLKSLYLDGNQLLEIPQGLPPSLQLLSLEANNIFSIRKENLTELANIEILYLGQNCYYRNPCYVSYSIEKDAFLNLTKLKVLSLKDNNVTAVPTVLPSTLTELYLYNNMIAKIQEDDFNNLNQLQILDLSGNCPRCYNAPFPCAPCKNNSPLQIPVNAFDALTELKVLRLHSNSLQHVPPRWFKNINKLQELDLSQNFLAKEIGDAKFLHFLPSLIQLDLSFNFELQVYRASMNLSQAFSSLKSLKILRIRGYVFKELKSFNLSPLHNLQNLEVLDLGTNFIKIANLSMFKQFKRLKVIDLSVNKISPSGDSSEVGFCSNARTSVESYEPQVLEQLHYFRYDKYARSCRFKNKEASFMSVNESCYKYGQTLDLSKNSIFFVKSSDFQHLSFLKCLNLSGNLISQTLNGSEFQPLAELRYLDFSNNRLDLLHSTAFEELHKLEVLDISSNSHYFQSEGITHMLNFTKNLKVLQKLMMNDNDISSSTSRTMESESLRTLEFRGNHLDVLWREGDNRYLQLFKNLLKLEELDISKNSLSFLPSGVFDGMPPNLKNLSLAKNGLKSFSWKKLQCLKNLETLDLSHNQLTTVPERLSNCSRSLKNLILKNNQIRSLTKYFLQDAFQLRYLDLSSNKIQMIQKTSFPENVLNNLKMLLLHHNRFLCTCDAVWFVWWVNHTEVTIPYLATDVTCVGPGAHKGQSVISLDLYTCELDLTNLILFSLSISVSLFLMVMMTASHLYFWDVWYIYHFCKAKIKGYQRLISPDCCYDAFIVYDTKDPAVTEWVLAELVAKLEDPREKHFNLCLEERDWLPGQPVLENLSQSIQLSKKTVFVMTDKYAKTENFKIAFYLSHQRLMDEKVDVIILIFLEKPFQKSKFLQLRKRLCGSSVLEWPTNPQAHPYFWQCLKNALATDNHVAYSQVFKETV
Procedure, shortened: as §1

SMILES | IC50 (human TLR8) [nM] | IC50 (human TLR7) [nM]
COc1ccc(-c2[nH]c3ccc(C4CCN(C(=O)CNC5CCC(O)CC5)CC4)cc3c2C(C)C)cc1OC (centres unmarked) [Example 246, 1-(4-(2-(3,4-dimethoxyphenyl)-3-isopropyl-1H-indol-5-yl)piperidin-1-yl)-2-((4-hydroxycyclohexyl)amino)ethan-1-one] | 19 | 11
COc1ccc(-c2[nH]c3ccc(C4CCN(C5C[C@H]6CC[C@@H](C5)N6C)CC4)cc3c2C)cc1OC (stereo partly drawn) [Example 21, 2-(3,4-dimethoxyphenyl)-3-methyl-5-(1-((1R,5S)-8-methyl-8-azabicyclo[3.2.1]octan-3-yl)piperidin-4-yl)-1H-indole] | 242 | 72
COc1ccc(-c2[nH]c3ccc(C4CCN(C(=O)CN5CCCC(CO)C5)CC4)cc3c2C(C)C)cc1OC (centres unmarked) [Example 226, 1-(4-(2-(3,4-dimethoxyphenyl)-3-isopropyl-1H-indol-5-yl)piperidin-1-yl)-2-(3-(hydroxymethyl)piperidin-1-yl)ethan-1-one] | 17 | 16
COc1ccc(-c2[nH]c3ccc(C4CCN(Cc5cnc[nH]5)CC4)cc3c2C(C)C)cc1OC [Example 268, 5-(1-((1H-imidazol-5-yl)methyl)piperidin-4-yl)-2-(3,4-dimethoxyphenyl)-3-isopropyl-1H-indole] | 15 | 31
COc1ccc(-c2[nH]c3ccc(C4CCN(C(=O)CN5CCCN(C)CC5)CC4)cc3c2C(C)C)cc1OC [Example 239, 1-(4-(2-(3,4-dimethoxyphenyl)-3-isopropyl-1H-indol-5-yl)piperidin-1-yl)-2-(4-methyl-1,4-diazepan-1-yl)ethan-1-one] | 17 | 11
COc1ccc(-c2[nH]c3ccc(C4CCN(C(=O)CN5CCC(N6CCN(C)CC6)CC5)CC4)cc3c2C(C)C)cc1OC [Example 241, 1-(4-(2-(3,4-dimethoxyphenyl)-3-isopropyl-1H-indol-5-yl)piperidin-1-yl)-2-(4-(4-methylpiperazin-1-yl)piperidin-1-yl)ethan-1-one] | 13 | 12
COc1ccc(-c2[nH]c3ccc(C4CCN(C5CCN(C6CC6)CC5)CC4)cc3c2C)cc1OC [Example 23, 5-(1′-cyclopropyl-[1,4′-bipiperidin]-4-yl)-2-(3,4-dimethoxyphenyl)-3-methyl-1H-indole] | 151 | 101
COc1ccc(-c2[nH]c3ccc(C4CCN(C(=O)CN5CCC(CO)CC5)CC4)cc3c2C(C)C)cc1OC [Example 243, 1-(4-(2-(3,4-dimethoxyphenyl)-3-isopropyl-1H-indol-5-yl)piperidin-1-yl)-2-(4-(hydroxymethyl)piperidin-1-yl)ethan-1-one] | 16 | 55
COc1ccc(-c2[nH]c3ccc(C4CCN(CC(=O)NC5CCN(C(C)C)CC5)CC4)cc3c2C(C)C)cc1OC [Example 273, 2-(4-(2-(3,4-dimethoxyphenyl)-3-isopropyl-1H-indol-5-yl)piperidin-1-yl)-N-(1-isopropylpiperidin-4-yl)acetamide] | 29 | 7
CCN(CC)C(=O)C1CCCN(CC(=O)N2CCC(c3ccc4[nH]c(-c5ccc(OC)c(OC)c5)c(C(C)C)c4c3)CC2)C1 (centres unmarked) [Example 247, 1-(2-(4-(2-(3,4-dimethoxyphenyl)-3-isopropyl-1H-indol-5-yl)piperidin-1-yl)-2-oxoethyl)-N,N-diethylpiperidine-3-carboxamide] | 38 | 40
COc1ccc(-c2[nH]c3ccc(C4CCN(C(=O)CN5CCN(C(C)C)CC5)CC4)cc3c2C(C)C)cc1OC [Example 240, 1-(4-(2-(3,4-dimethoxyphenyl)-3-isopropyl-1H-indol-5-yl)piperidin-1-yl)-2-(4-isopropylpiperazin-1-yl)ethan-1-one] | 34 | 11

Further lines, results first:

IC50 (human TLR8) [nM] | IC50 (human TLR7) [nM] | SMILES
73 | 153 | COc1ccc(-c2[nH]c3ccc(C4CCN(C(=O)CN5CCC[C@@H](C(=O)N6CCC(CCO)CC6)C5)CC4)cc3c2C(C)C)cc1OC [Example 306, (R)-1-(4-(2-(3,4-dimethoxyphenyl)-3-isopropyl-1H-indol-5-yl)piperidin-1-yl)-2-(3-(4-(2-hydroxyethyl)piperidine-1-carbonyl)piperidin-1-yl)ethan-1-one]
17 | 5 | COc1ccc(-c2[nH]c3ccc(C4CCN(C(=O)CN5CCC[C@H](C(=O)N6CCN(C(C)C)CC6)C5)CC4)cc3c2C(C)C)cc1OC [Example 286, (S)-1-(4-(2-(3,4-dimethoxyphenyl)-3-isopropyl-1H-indol-5-yl)piperidin-1-yl)-2-(3-(4-isopropylpiperazine-1-carbonyl)piperidin-1-yl)ethan-1-one]
11 | 8 | COc1ccc(-c2[nH]c3ccc(C4CCN(CC(=O)N5CC[C@H](O)C5)CC4)cc3c2C(C)C)cc1OC [Example 278, (S)-2-(4-(2-(3,4-dimethoxyphenyl)-3-isopropyl-1H-indol-5-yl)piperidin-1-yl)-1-(3-hydroxypyrrolidin-1-yl)ethan-1-one]
28 | 8 | COc1ccc(-c2[nH]c3ccc(C4CCN(CC(=O)N(C)C)CC4)cc3c2C(C)C)cc1OC [Example 312, 2-(4-(2-(3,4-dimethoxyphenyl)-3-isopropyl-11H-indol-5-yl)piperidin-1-yl)-N,N-dimethylacetamide]
27 | 17 | COc1ccc(-c2[nH]c3ccc(C4CCN(CC(=O)NCCO)CC4)cc3c2C(C)C)cc1OC [Example 276, 2-(4-(2-(3,4-dimethoxyphenyl)-3-isopropyl-1H-indol-5-yl)piperidin-1-yl)-N-(2-hydroxyethyl) acetamide]
22 | 35 | COc1ccc(-c2[nH]c3ccc(C4CCN(C(=O)CN5CCC[C@H](C(=O)NC6(CO)CCCC6)C5)CC4)cc3c2C(C)C)cc1OC [Example 296, (S)-1-(2-(4-(2-(3,4-dimethoxyphenyl)-3-isopropyl-1H-indol-5-yl)piperidin-1-yl)-2-oxoethyl)-N-(1-(hydroxymethyl)cyclopentyl)piperidine-3-carboxamide]
228 | 68 | COc1ccc(-c2[nH]c3ccc(C4CCN(CC(=O)N5CCN(C)CC5)CC4)cc3c2C(C)C)cc1OC [Example 274, 2-(4-(2-(3,4-dimethoxyphenyl)-3-isopropyl-1H-indol-5-yl)piperidin-1-yl)-1-(4-methylpiperazin-1-yl) ethan-1-one]
19 | 48 | COc1ccc(-c2[nH]c3ccc(C4CCN(C(=O)CN5CCC[C@H](C(=O)NCC#N)C5)CC4)cc3c2C(C)C)cc1OC [Example 297, (S)—N-(cyanomethyl)-1-(2-(4-(2-(3,4-dimethoxyphenyl)-3-isopropyl-1H-indol-5-yl)piperidin-1-yl)-2-oxoethyl)piperidine-3-carboxamide]
